# Key:
# OAT1 = target: T1, OAT1 (Homo sapiens, UniProt Q4U2R8); assay: in vitro
# T1 sequence (Q4U2R8 1-563): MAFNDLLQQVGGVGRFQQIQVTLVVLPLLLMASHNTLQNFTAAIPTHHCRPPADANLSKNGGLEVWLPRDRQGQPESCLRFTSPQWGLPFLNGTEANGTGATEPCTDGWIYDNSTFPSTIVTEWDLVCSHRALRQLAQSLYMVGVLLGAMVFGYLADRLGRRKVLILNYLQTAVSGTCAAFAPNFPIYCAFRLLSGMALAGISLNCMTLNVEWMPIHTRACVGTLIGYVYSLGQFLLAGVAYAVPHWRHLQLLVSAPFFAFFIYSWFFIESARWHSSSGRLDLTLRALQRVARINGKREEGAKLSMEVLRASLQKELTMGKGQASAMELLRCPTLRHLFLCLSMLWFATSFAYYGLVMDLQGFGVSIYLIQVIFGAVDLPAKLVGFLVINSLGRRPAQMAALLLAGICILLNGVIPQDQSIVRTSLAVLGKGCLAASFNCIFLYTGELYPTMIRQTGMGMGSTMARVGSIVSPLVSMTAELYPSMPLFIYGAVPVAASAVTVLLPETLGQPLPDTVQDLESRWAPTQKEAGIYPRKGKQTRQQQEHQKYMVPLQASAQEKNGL
# Experimental: (§1) The pre-incubation solutions were removed, and incubation solutions containing the inhibitors and probe substrates (or transport buffer containing an equal volume of vehicle control and probe substrates) were added and incubated at 37°C for 2 min (5 min for OATP1B3). The probe substrate for OAT1 was 4-aminohippuric acid (10 μM), for OAT3 was estrone 3-sulfate (10 μM), for OCT2 was metformin (100 μM), for OATP1B1 was β-estradiol 17-(β-D-glucuronide) (5 μM), for OATP1B3 was β-estradiol 17-(β-D-glucuronide) (10 μM), and for MATE1 and MATE2-K was tetraethylammonium (10 μM). After incubation, cells were washed three times with ice-cold transport buffer (25 mM HEPES, pH 7.4, pH 8.0 for overexpressing MATE1 and MATE2-K HEK293 cells) and lysed in distilled water. The concentrations of probe substrates were determined by LC-MS/MS, and a BCA Kit (Solarbio ®Life Sciences, Beijing, China) was used to determine the protein content in the cell lysate.
# (§2) where C is the concentration of the drug in the cell lysate (nM), P is the protein concentration of the cell lysate (mg/mL), and T is the incubation time (minute). Uptake ratetest compound is the uptake rate of the substrate in the presence of the test compound. Uptake ratevehicle control is the uptake rate of the substrate in the presence of the vehicle control. Uptake ratepassive is the uptake rate of the substrate in the presence of the positive inhibitor at the top test concentration.
# OATP1B3 = target: T2, OATP1B3 (Homo sapiens, UniProt Q9NPD5); assay: OATP1B3 inhibition, β-estradiol 17-(β-D-glucuronide) uptake in transfected HEK293 cells
# T2 sequence (Q9NPD5 1-702): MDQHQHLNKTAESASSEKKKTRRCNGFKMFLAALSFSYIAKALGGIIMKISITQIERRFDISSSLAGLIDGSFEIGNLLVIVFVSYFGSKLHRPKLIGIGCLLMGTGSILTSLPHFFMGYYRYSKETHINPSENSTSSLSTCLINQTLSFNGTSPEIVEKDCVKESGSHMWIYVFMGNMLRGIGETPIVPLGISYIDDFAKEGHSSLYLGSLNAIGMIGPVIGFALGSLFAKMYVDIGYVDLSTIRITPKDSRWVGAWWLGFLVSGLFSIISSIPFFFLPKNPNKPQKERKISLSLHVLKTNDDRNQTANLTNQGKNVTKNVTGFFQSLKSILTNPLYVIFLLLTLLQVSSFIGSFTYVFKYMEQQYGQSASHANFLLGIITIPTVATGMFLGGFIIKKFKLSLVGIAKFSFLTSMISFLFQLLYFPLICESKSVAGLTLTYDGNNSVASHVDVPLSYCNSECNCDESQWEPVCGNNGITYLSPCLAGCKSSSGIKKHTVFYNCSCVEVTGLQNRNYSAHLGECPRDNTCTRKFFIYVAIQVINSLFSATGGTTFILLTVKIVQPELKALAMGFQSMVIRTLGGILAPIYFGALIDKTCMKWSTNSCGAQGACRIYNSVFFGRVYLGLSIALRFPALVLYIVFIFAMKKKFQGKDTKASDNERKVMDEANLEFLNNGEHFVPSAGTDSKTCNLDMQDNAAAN
# Experimental: as §1, §2
structure (smiles),measurement,setting,value
C[C@H](Nc1ncnc(N)c1C#N)c1cc2ncc(Cl)n2nc1-c1ccccc1 [Amdizalisib],IC50,OAT1,4.14 µM
same,Percentage transported,"OAT1; OAT1, compound 0.3 μM",96.4%
same,Uptake rate,"OAT1; OAT1, compound 0.3 μM",489±79.6 pmol/mg protein/min
same,Percentage transported,"OAT1; OAT1, compound 1 μM",91.6%
same,Uptake rate,"OAT1; OAT1, compound 1 μM",467±34.8 pmol/mg protein/min
same,Percentage transported,"OAT1; OAT1, compound 3 μM",50.9%
same,Uptake rate,"OAT1; OAT1, compound 3 μM",278±37.1 pmol/mg protein/min
same,Percentage transported,"OAT1; OAT1, compound 10 μM",33.3%
same,Uptake rate,"OAT1; OAT1, compound 10 μM",196±6.18 pmol/mg protein/min
same,Percentage transported,"OAT1; OAT1, compound 30 μM",7.47%
same,Uptake rate,"OAT1; OAT1, compound 30 μM",76.5±17.7 pmol/mg protein/min
same,Percentage transported,"OAT1; OAT1, compound 100 μM",-7.21%
same,Uptake rate,"OAT1; OAT1, compound 100 μM",8.38±1.24 pmol/mg protein/min
same,"inhibition at 2 min, 0.3 µM","OAT1; human, pH 7.4",3.65%
same,"inhibition at 2 min, 1 µM","OAT1; human, pH 7.4",8.44%
same,"inhibition at 2 min, 3 µM","OAT1; human, pH 7.4",49.1%
same,"inhibition at 2 min, 10 µM","OAT1; human, pH 7.4",66.7%
same,"inhibition at 2 min, 30 µM","OAT1; human, pH 7.4",92.5%
same,"inhibition at 2 min, 100 µM","OAT1; human, pH 7.4",107%
same,calculated R value (OAT1),OAT1; renal OATs,< 1.1
same,IC50,OATP1B3,5.03 µM
same,Percentage transported,"OATP1B3; human, 5 min, 0.3 μM, pH 7.4",94.5%
same,Uptake rate,"OATP1B3; human, 5 min, 0.3 μM, pH 7.4",62.4±5.58 pmol/mg protein/min
same,Percentage transported,"OATP1B3; human, 5 min, 1 μM, pH 7.4",89.2%
same,Uptake rate,"OATP1B3; human, 5 min, 1 μM, pH 7.4",59.1±6.36 pmol/mg protein/min
same,Percentage transported,"OATP1B3; human, 5 min, 3 μM, pH 7.4",68.1%
same,Uptake rate,"OATP1B3; human, 5 min, 3 μM, pH 7.4",46.2±10.1 pmol/mg protein/min
same,Percentage transported,"OATP1B3; human, 5 min, 10 μM, pH 7.4",29.3%
same,Uptake rate,"OATP1B3; human, 5 min, 10 μM, pH 7.4",22.4±1.00 pmol/mg protein/min
same,Percentage transported,"OATP1B3; human, 5 min, 30 μM, pH 7.4",3.82%
same,Uptake rate,"OATP1B3; human, 5 min, 30 μM, pH 7.4",6.76±0.372 pmol/mg protein/min
same,Percentage transported,"OATP1B3; human, 5 min, 100 μM, pH 7.4",-4.02%
same,Uptake rate,"OATP1B3; human, 5 min, 100 μM, pH 7.4",1.99±0.315 pmol/mg protein/min
same,calculated R value (OATP1B3),"OATP1B3; human, 5 min, pH 7.4",5.1
same,"inhibition at 5 min, 0.3 µM","OATP1B3; human, pH 7.4",5.47%
same,"inhibition at 5 min, 1 µM","OATP1B3; human, pH 7.4",10.8%
same,"inhibition at 5 min, 3 µM","OATP1B3; human, pH 7.4",31.9%
same,"inhibition at 5 min, 10 µM","OATP1B3; human, pH 7.4",70.7%
same,"inhibition at 5 min, 30 µM","OATP1B3; human, pH 7.4",96.2%
same,"inhibition at 5 min, 100 µM","OATP1B3; human, pH 7.4",104%
